A short description of data set [1]: In vitro metabolic stability assay in microsomes. It is filed as in vitro ADME. Conditions: for half-life at 1 µM: read-out: Degradation half-life; for microsomal CLint at 1 µM: 0.4 mg/mL. Here is the method:
In vitro microsomal stability assay was performed in duplicate in a 96-well microtiter plate, using a single-point experiment design ([42]). Test compounds (1 µM) were incubated individually in human (pool of 50, mixed gender), rat (pool of 711, male Sprague Dawley), and mouse (pool of 1,634, male CD1) liver microsomes (Xenotech, Kansas, USA) to a final protein concentration of 0.4 mg/mL, suspended in 0.1 M phosphate buffer (pH 7.4). Incubations were started by the addition of NADPH (1 mM) as a cofactor and shaken for 30 min at 37°C. The reactions were quenched by the addition of 300 µL of ice-cold acetonitrile containing an internal standard (carbamazepine, 0.0236 µg/mL) and centrifuged. The supernatant was transferred to a fresh 96-well plate and analyzed by liquid chromatography-tandem mass spectrometry (LC-MS/MS) (Agilent Rapid Resolution HPLC, AB SCIEX 4500 MS). The relative loss of the parent compound over time was monitored, and plots (concentration vs time) were prepared per compound to determine the first-order rate constant for compound depletion. This was in turn used to calculate half-life, in vitro intrinsic clearance (Clint), and in vivo hepatic extraction ratio ([43]).

Data set [2] deals with quiescent ART-resistant parasites (F32-ART). The data set can be described thus: Quiescent-stage survival assay (QSA). The conditions noted are these: threshold of activity 6 days. It is filed as cell-based, Plasmodium falciparum. Here is the method: The QSA was performed as previously described to determine the drug activity on quiescent ART-resistant parasites ([11]). F32-ART culture parasites were synchronized at the ring stage and adjusted to 3% parasitemia and 2% hematocrit. […] At the end of treatment, parasites from each of the three conditions were washed with RPMI-1640 medium and replaced in new wells in a drug-free culture medium with 10% human serum. Parasitemia was determined daily by thin blood smears until the cultures reached their initial parasitemia (3%), which was defined as the recrudescence day ([11]). The recrudescence capacity of parasites exposed in conditions A and B was compared to determine whether the drug was active on quiescent parasites. Condition C was designed to check that the concentration at which the drug was tested acted on proliferating parasites. If no parasite recrudescence was observed, the experiment was stopped.

Data set [3] relates to Asynchronous NF54 strain of P. falciparum. Kind of data set: Speed of drug activity (pLDH). It is filed as cell-based, Plasmodium falciparum. Conditions: for IC50: Plasmodium falciparum, NF54, asynchronous, mean (95% CI). Here is the method: Each well of 96-well plates was filled with 100 µL drug and 100 µL culture containing asynchronous P. falciparum (NF54 strain) parasites, which were mixed to obtain a final parasitemia of 1.0% to 1.5% and 1.0% hematocrit. The plates were incubated for 24, 48, and 72 h at 37°C with a standard gas mixture. […] Parasite viability was measured using the pLDH method, and IC50 values were calculated as described above. Three independent experiments were performed using two technical replicates.
Figure S3: Speed of antiparasitic activity of hybrids (1) and (2) against CQ-sensitive NF54 strain of P. falciparum. Panel A: Representative response-concentration curves. Panel B: A table summarizing the results. Footnotes for table: ^[a] Parasite viability was accessed at each indicated time (24, 48, or 72 h) after addition of drugs. Values are the mean and 95% confidence interval of one experiment using each concentration of compounds in duplicate. Parasite viability was determined by parasite lactate dehydrogenase (pLDH) assay. DHA = dihydroartemisinin; ATO = atovaquone.

The test system of data set [4] is 3D7 strain of P. falciparum. Kind of data set: Host cell-mediated drug degradation: antiplasmodial activity of uRBC supernatants. It is filed as cell-based, Plasmodium falciparum. Conditions: for IC50: Plasmodium falciparum, 3D7, 0.16 h, 500 nM drug, 3D7, SYBR Green I, median ± SEM (AQ mean, 95% CI), read-out: IC50 of supernatants harvested at 0.16 h; for Fold changes (24 h/0.16 h): 3D7, ratio of IC50 at 24 h to IC50 at 0.16 h. Here is the method:
Each well of 96-well plates was filled with 125 µL drug (1000 nM) and 125 µL uninfected red blood cells (uRBC), which were mixed to obtain a final drug concentration of 500 nM and 2.5% or 1.0% hematocrit. The plates were incubated at 37°C in the standard gas mixture. After each time point (10 min, 6 h, and 24 h), supernatants were carefully harvested and stored at −80°C until use. […] Next, supernatants were diluted in a complete medium in six different dilutions and were aliquoted in new plates. The antimalarial activity of these supernatants and freshly dissolved drugs was determined in an asynchronous parasite culture of P. falciparum (3D7, D10, and W2 strains) for 72 h using the same method described above, and parasite viability was assessed by the pLDH ([38]) and SYBR Green I ([41]) methods. Only the experiments where the IC50 values of the supernatants harvested at 10 min were the same as those of the respective fresh drugs were considered for determining equivalent drug concentration. […] Decay in drug concentration was estimated by using the normalized slope values calculated from linear regression fits using the slope values of a standard curve as reference. Three independent experiments were performed using two replicates.
Figure S5: Data associated to Figure 3 in the main text of the manuscript. Panel A: Representative response-concentration curves of the antiplasmodial activity of supernatant-derived uRBC (2.5% hematocrit) harvested at indicated times (0.16, 6, and 24 h). Drug activity on parasite viability was determined 72 h after parasite incubation (3D7 strain, asynchronous). Values were subtracted from control (without treatment), transformed, and normalized to calculate nonlinear fit. Parasite viability was determined by SYBR Green I. Values are mean and error bars are the standard deviation of a single experiment, each concentration in duplicate. […] Footnotes: ^[a] Parasite viability was determined by SYBR Green I. ^[b^] Parasite viability was determined by pLDH readout. Values are median ± SEM of three independent experiments, each concentration in duplicate. ^[c^] […] These values are expressed as mean and 95% confidence interval (CI) of one experiment, each concentration in duplicate. […] Unpaired two-tailed t-test at 95% CI: *p <0.05; **p <0.01.

Read-outs that look alike come from different tables or passages of the source.

Regarding `C[C@H]1[C@H](OC(=O)CCC(=O)O)O[C@@H]2O[C@@]3(C)CC[C@H]4[C@H](C)CC[C@@H]1[C@@]24OO3` [Artesunate, artesunate, reference compound], the half-life at 1 µM in data set [1] (both sexes, pH 7.4, human liver microsomes) is 7 min; in data set [1] (male, CD1, pH 7.4, mouse liver microsomes) it was 4 min; in data set [1] (male, Sprague Dawley, pH 7.4, rat liver microsomes), 4 min. Besides, the microsomal CLint at 1 µM in data set [1] (both sexes, human liver microsomes, pH 7.4) is 250 µL/min/mg; in data set [1] (male, CD1, mouse liver microsomes, pH 7.4), 429 µL/min/mg; in data set [1] (male, Sprague Dawley, rat liver microsomes, pH 7.4), 442 µL/min/mg. The entries for the “Drug remaining after 30 min” value in data set [1] (human liver microsomes), in data set [1] (mouse liver microsomes) and in data set [1] (rat liver microsomes) were 5%, 0.6% and 0.5%, respectively.
`O=C1C(O)=C([C@H]2CC[C@H](c3ccc(Cl)cc3)CC2)C(=O)c2ccccc21` [ATO, atovaquone, reference compound]: the “delay of recrudescence in the QSA versus DHA alone” value in data set [2] is on record as “up to 10 days”. For the same compound, the IC50 in data set [3] (viability at 24 h, read-out: IC50, 24 h) was over 600 nM; in data set [3] (viability at 48 h, read-out: IC50, 48 h), 5.3 nM; in data set [3] (viability at 72 h, read-out: IC50, 72 h), 0.78 nM. For the same compound, the “Conclusion (speed of antiparasitic activity)” value in data set [3] (from IC50 at 24, 48, 72 h) is “Slow-acting”.
For `CCN(CC)Cc1cc(Nc2ccnc3cc(Cl)ccc23)ccc1O` [AQ, amodiaquine, reference compound], in data set [4] (uRBC 1.0% hematocrit), the IC50 was found to be 3.9 nM and the “Fold changes (24 h/0.16 h)” value is on record as 0.76. For the same compound, in data set [4] (uRBC 2.5% hematocrit), the IC50 came to 3.6 nM and the “Fold changes (24 h/0.16 h)” value worked out at 0.91.

For orientation: half-life means the time needed for the level to fall by half in the phase considered. As a reminder, the microsomal CLint is the capacity of the preparation to metabolise the compound, expressed as a volume cleared per time. A word on the IC50: it is the concentration needed to halve the response being measured.
